The source of these data is patent US8791265B2, “Sulfonamido derivatives of 3,4-diarylpyrazoles as protein kinase inhibitors” (Nerviano Medical Sciences S.R.L., priority 2010, dated 2014).

Data set [1] has as its system human melanoma cells Mewo (with wild-type B-Raf). Put plainly: In vitro cell proliferation assay, Mewo. The format is cell-based. To be noted: 72 hours treatment, cell number by ATP monitoring. How it is done:
(§1) Exponentially growing human melanoma cells A375 (with a mutated B-RAF) and human melanoma cells Mewo (with wild-type B-Raf) were seeded and incubated at 37° C. in a humidified 5% CO2 atmosphere. After 24 hours, scalar doses of the compound were added to the medium and cells oncubated for 72 hours. At the end of treatment, cells were washed and counted. Cell number was determined by a cellular adenosine triphosphate monitoring system. Cell proliferation was compared to control cells and the concentration inhibiting cell growth by 50% was calculated.

Data set [2] deals with human melanoma cells A375 (with a mutated B-RAF). Nature of the data set: In vitro cell proliferation assay, A375. Format: cell-based. Conditions: A-375, 72 hours treatment, cell number by ATP monitoring. The protocol:
as §1

In data set [3] the test system is p-MAPK (T202/Y204) in A375 human melanoma cells, having a mutated B-RAF. Put plainly: p-MAPK (T202/Y204) ArrayScan assay. Format: cell-based. To be noted: A-375, 1.5 or 2 hours treatment, p-MAPK cytoplasmatic fluorescence intensity, read-out: Array Scan A375 IC50. How it is done: A375 human melanoma cells, having a mutated B-RAF, are seeded in 384-well poly-lysine coated plates (Matrix) at a density of 1000 cells/well with appropriate medium supplemented with 10% FCS and incubated for 16-24 hours. Cells are treated for 1.5 or 2 hours with increasing doses of compounds (starting dose 10 μM, dilution factor 2.5). At the end of the treatment cells are fixed with p-formaldehyde 3.7% for 15-30 min, then I/well) and permeabilized with D-PBS containing washed twice with D-PBS (80 0.1% Triton X-100 and 1% BSA (Sigma-Aldrich) for 15 minutes at room temperature (staining solution). Anti-phospho-MAPK (T202/Y204) monoclonal antibody E10 (Cell Signaling, cat. #9106) diluted 1:100 is added in staining solution and incubated for 1 hour at 37° C. After removal of the primary antibody solution, the anti-mouse Cy™2-conjugated (Green) secondary antibody (Amersham) diluted 1:500 in staining solution containing 2 μg/ml DAPI is added. The plate is incubated for 1 hour at 37° C., washed twice and then red with Cellomics' ArrayScan VTI (4 fields/well, CytoNucTrans algorithm).
The parameter “MEAN_RingAvgIntenCh2”, which measures the mean cytoplasmatic fluorescence intensity associated to p-MAPK staining, is reported as the final result.

Data set [4] is described as follows: Stability study in PBS buffer pH 7.4. The format is physicochemical. To be noted: PBS pH 7.4, 37° C., 0-120 minutes, HPLC/MS; FIG. 1. How it is done:
(§2) A compound of formula (I) of the present invention, dissolved in DMSO, was incubated at 37° C. in PBS at pH 7.4 or fresh mouse plasma. Aliquots were withdrawn and analysed by HPLC/MS at 0, 5, 15, 60 and 120 minutes. The UV signal in the range 210-400 nm was used for the quantification of the chromatographic peaks either of the compound of formula (I) and the parent compound of formula (II).

The nature of data set [5]: In vitro conversion of prodrug into parent compound in fresh mouse plasma. Format: in vitro ADME. Conditions: 37° C., 0-120 minutes, HPLC/MS, FIG. 2. The protocol:
as §2

pIC50: −log10 of the molar value. Some results are limits rather than exact numbers.

A word on the pIC50: it is the negative decadic logarithm of the IC50, by convention in mol/L. `CCn1cc(-c2ccncc2)c(-c2c(F)ccc(N(C(C)=O)S(=O)(=O)c3cc(F)ccc3F)c2F)n1` [compound 5, N-[(2,5-difluorophenyl)sulfonyl]-N-{3-[1-ethyl-4-(pyridin-4-yl)-1H-pyrazol-3-yl]-2,4-difluorophenyl}acetamide]: the pIC50 was less than 5.00 in data set [1], 7.70 in data set [2] and 7.70 in data set [3].
With `CCOC(=O)N(c1ccc(F)c(-c2nn(C)cc2-c2ccncc2)c1F)S(=O)(=O)c1cc(F)ccc1F` [compound 12, ethyl [(2,5-difluorophenyl)sulfonyl]{3-[1-methyl-4-(pyridin-4-yl)-1H-pyrazol-3-yl]-2,4-difluorophenyl}carbamate], the pIC50 in data set [1] was less than 5.00; in data set [2], 6.77; in data set [3], 7.70.
On the same counts, the results for `CCCOC(=O)N(c1ccc(F)c(-c2nn(CC)cc2-c2ccncc2)c1F)S(=O)(=O)c1cc(F)ccc1F` [compound 3, propyl [(2,5-difluorophenyl)sulfonyl]{3-[1-ethyl-4-(pyridin-4-yl)-1H-pyrazol-3-yl]-2,4-difluorophenyl}carbamate] are less than 5.00, 7.70 and 7.70.
Take `CCOC(=O)N(c1ccc(F)c(-c2nn(CC)cc2-c2ccncc2)c1F)S(=O)(=O)c1cc(F)ccc1F` [Cmpd. No. 2, ethyl [(2,5-difluorophenyl)sulfonyl]{3-[1-ethyl-4-(pyridin-4-yl)-1H-pyrazol-3-yl]-2,4-difluorophenyl}carbamate]: the “stability in PBS buffer” value in data set [4] is on record as “stable in buffer”. In addition, the results for the pIC50 in data set [1], in data set [2] and in data set [3] were less than 5.00, 6.43 and 6.85, respectively. Moreover, the “conversion into the parent compound in fresh mouse plasma” value in data set [5] is recorded as “rapidly converted into the corresponding parent compound”.
Turning to `CCn1cc(-c2ccnc(N)c2)c(-c2c(F)ccc(N(C(C)=O)S(=O)(=O)c3cc(F)ccc3F)c2F)n1` [Cmpd. No. 45, N-{3-[4-(2-aminopyridin-4-yl)-1-ethyl-1H-pyrazol-3-yl]-2,4-difluorophenyl}-N-[(2,5-difluorophenyl)sulfonyl]acetamide], the pIC50 in data set [1] is less than 5.00; in data set [2] it was 7.05; in data set [3], 7.30.
On the same counts, the results for `CCn1cc(-c2ccncc2)c(-c2c(F)ccc(N(C(=O)OC(C)C)S(=O)(=O)c3cc(F)ccc3F)c2F)n1` [Cmpd. No. 4, propan-2-yl [(2,5-difluorophenyl)sulfonyl]{3-[1-ethyl-4-(pyridin-4-yl)-1H-pyrazol-3-yl]-2,4-difluorophenyl}carbamate] are less than 5.00, 7.70 and 7.70.
On the same counts, the results for `CCn1cc(-c2ccncc2)c(-c2c(F)ccc(N(COC(C)=O)S(=O)(=O)c3cc(F)ccc3F)c2F)n1` [compound 7, ([(2,5-difluorophenyl)sulfonyl]{3-[1-ethyl-4-(pyridin-4-yl)-1H-pyrazol-3-yl]-2,4-difluorophenyl}amino)methyl acetate] are less than 5.00, 7.70 and 7.70.
On the same counts, the results for `CCn1cc(-c2ccncc2)c(-c2c(F)ccc(N(C(=O)OC)S(=O)(=O)c3cc(F)ccc3F)c2F)n1` [compound 1, methyl [(2,5-difluorophenyl)sulfonyl]{3-[1-ethyl-4-(pyridin-4-yl)-1H-pyrazol-3-yl]-2,4-difluorophenyl}carbamate] are less than 5.00, 7.70 and 7.70.
